ChEMBL document CHEMBL1201862, “PubChem BioAssay data set” (2004)
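Cells were grown in 96-well plates and exposed to each compound for 48 hours at five concentrations; endpoints were interpolated linearly between bracketing concentrations, or set to the highest concentration if not reached. Abbreviation: GI50, concentration required for 50% inhibition of growth.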 The source made the active and inactive calls. Rule as the data show it: active = GI50 up to about 1.1 µM and inactive = higher.

Tests used:
Assay in all cases: inhibition of tumour cell growth, NCI panel, 48 h
KM-20L2 = test system: KM-20L2
DMS-273 = test system: DMS-273
DMS-114 = test system: DMS-114
XF498 = test system: XF498
DLD-1 = test system: DLD-1
SNB-78 = test system: SNB-78
HOP-18 = test system: HOP-18
LXFL 529 = test system: LXFL 529
RXF 631 = test system: RXF 631

| SMILES | GI50 (KM-20L2) | GI50 (DMS-273) | GI50 (DMS-114) | GI50 (XF498) | GI50 (DLD-1) | GI50 (SNB-78) | GI50 (HOP-18) | GI50 (LXFL 529) | GI50 (RXF 631) |
| --- | --- | --- | --- | --- | --- | --- | --- | --- | --- |
| CC(C)(C)c1cc(C(=O)O)c(C(c2ccccc2)c2ccccc2C(=O)O)c(C(=O)O)c1 (stereo unspecified) | > 100 µM (inactive) | > 100 µM (inactive) | > 100 µM (inactive) | > 100 µM (inactive) | > 100 µM (inactive) | > 100 µM (inactive) | > 100 µM (inactive) | > 100 µM (inactive) |  |
| C[N+](C)(C)CC(=O)N/N=C(/Cc1cc(=O)oc2cc(O)ccc12)C(=O)Nc1ccc(Cl)cc1 | > 100 µM (inactive) |  | > 100 µM (inactive) |  | > 100 µM (inactive) |  |  |  | > 100 µM (inactive) |
| COc1cccc(C=O)c1C(=O)c1cc(O)ccc1O | > 100 µM (inactive) | > 58.7 µM (inactive) | 11 µM (inactive) | 44.2 µM (inactive) | 16.3 µM (inactive) | > 45.9 µM (inactive) | 25.1 µM (inactive) |  |  |
| CN/N=C(\C)c1c(O)cc(C)oc1=O | > 100 µM (inactive) |  |  |  | > 100 µM (inactive) |  | > 100 µM (inactive) | > 100 µM (inactive) | > 100 µM (inactive) |
| CC12CC[C@H](O)C(C)(C)[C@H]1CC[C@](C)(O)C2COc1ccc2ccc(=O)oc2c1 (stereo partly specified) | > 100 µM (inactive) | > 100 µM (inactive) | 85.3 µM (inactive) | > 100 µM (inactive) | > 100 µM (inactive) | 48.4 µM (inactive) | > 100 µM (inactive) | > 100 µM (inactive) |  |
| O=C(/C=C\c1cccc2ccccc12)c1ccc(F)cc1 | 16.6 µM (inactive) | 15.2 µM (inactive) | 14.4 µM (inactive) |  | 19.1 µM (inactive) | 19.8 µM (inactive) | 14.3 µM (inactive) | 17.1 µM (inactive) |  |
| CC(C)(CN1CCCCC1)C(=O)/C=C/c1ccc(Cl)c(Cl)c1 |  | 1.69 µM (inactive) | 1.56 µM (inactive) |  | 1.67 µM (inactive) | 1.51 µM (inactive) | 1.52 µM (inactive) | 1.46 µM (inactive) | 1.72 µM (inactive) |
| COC1C(O)=C2C(=O)O/C(C)=C/C=C/C=C/C=C\CC(c3ccccc3)NC(=O)\C=C/C=C\C=C\C=C\[C@@]2(C)[C@@H]1O (stereo partly specified) | < 0.01 µM (active) |  | 0.0249 µM (active) | 0.0213 µM (active) | < 0.01 µM (active) |  |  |  |  |
| Cc1ccc2[nH]c(Sc3c([N+](=O)[O-])ncn3C)nc2c1 | 25.6 µM (inactive) | 12.2 µM (inactive) | 14.3 µM (inactive) | 0.586 µM (active) | 20.4 µM (inactive) | 23.2 µM (inactive) | 17.5 µM (inactive) | > 10 µM (inactive) | 17.2 µM (inactive) |
| CCOC(=O)c1cc(/C=C/C(C)=C/C(=O)OC)n(C)c1C | 74 µM (inactive) | > 100 µM (inactive) |  | 93.1 µM (inactive) | 67.8 µM (inactive) | > 100 µM (inactive) |  | 91.6 µM (inactive) | > 100 µM (inactive) |
| CC1(C)O[C@@H](CC/C=C/CO)[C@H](CC/C=C/CO)O1 | > 100 µM (inactive) | > 100 µM (inactive) | > 100 µM (inactive) | > 100 µM (inactive) | > 100 µM (inactive) | > 100 µM (inactive) | > 100 µM (inactive) | > 100 µM (inactive) |  |
| CC(=O)C=C1Nc2ccccc2N1 | > 100 µM (inactive) |  |  | > 100 µM (inactive) | > 100 µM (inactive) | > 100 µM (inactive) |  | > 100 µM (inactive) | > 100 µM (inactive) |
| CC[N+](CC)(CC)Cc1cc2ccccc2n1C(=O)OC | > 100 µM (inactive) | > 100 µM (inactive) | > 100 µM (inactive) | > 100 µM (inactive) | > 100 µM (inactive) |  |  | > 100 µM (inactive) |  |
